One test addresses T1, Gal4-RORγ-LBD (Homo sapiens, UniProt P51449).
T1 construct: expressed in transfected cells; host or cells: HEK-293 cells (pcDNA3.1neo plasmid)
T1 sequence (P51449 269-508 limits assumed): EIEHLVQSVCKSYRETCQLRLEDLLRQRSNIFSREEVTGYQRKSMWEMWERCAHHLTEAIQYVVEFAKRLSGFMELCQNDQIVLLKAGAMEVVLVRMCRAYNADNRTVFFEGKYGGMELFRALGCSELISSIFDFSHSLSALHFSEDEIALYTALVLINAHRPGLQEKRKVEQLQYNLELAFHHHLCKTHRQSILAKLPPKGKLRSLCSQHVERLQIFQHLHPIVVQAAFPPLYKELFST
The experiment in a line: Gal4-RORγ Luciferase Reporter Assay in HEK-293T Cells. It is filed as cell-based. Particulars: HEK-293 cells. A digest of the protocol: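 In transfected HEK-293 cells (Gal4-RORγ-LBD, Gal4-luciferase), test agents with 2 μM ursolic acid were incubated overnight at 37 °C before luminescent detection. Values are relative to the ursolic-acid-free, compound-free signal (100).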
For orientation: Reporter assays use an easily measured gene product as a stand-in for the process of interest.

In another test the target is T2, RORγ-LBD (Homo sapiens, UniProt P51449).
T2 construct: made in house; host or cells: SF9 cells (baculovirus)
T2 sequence (P51449 269-508 limits assumed): T1 sequence (P51449 269-508 limits assumed)
In words: RORγ-Ligand Binding Domain (LBD) TR-FRET Assay.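 On TR-FRET Assay Max Response: 665/615 nm ratio relative to signal without ursolic acid or compound set at 100.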 It is filed as biochemical. A digest of the protocol: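 SF9 lysate containing His-RORγ-LBD, ~3 nM final; coactivator peptide biotin-SRC1 LXXLL, 200 nM final; ursolic acid 2 μM final; DMSO 1% final; Tris pH 7.0 buffer with KCl, EDTA, DTT, BSA. TR-FRET format.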
For orientation: TR-FRET usually uses a lanthanide donor and a delayed reading to cut background.

Where [1] appears, read: luciferase reporter, with 2 μM ursolic acid.

From US10611740B2, “Aryl dihydro-2H-benzo[b][1,4]oxazine sulfonamide and related compounds for use as agonists of RORγ and the treatment of disease” (Lycera Corporation, priority 2015, dated 2020) come the findings set out here.

What is called EC50 is the concentration giving half of the maximal effect. The low end stands for a more potent agent, the high end for a less potent agent.

Take `CC(C)(C[C@H]1CN(S(=O)(=O)c2cccc(C(F)(F)F)c2)c2cc(-c3cc(F)ccc3Cl)ccc2O1)C(=O)O` [Compound 32I, (S)-3-(6-(2-chloro-5-fluorophenyl)-4-((3-(trifluoromethyl)phenyl)sulfonyl)-3,4-dihydro-2H-benzo[b][1,4]oxazin-2-yl)-2,2-dimethylpropanoic acid]: at Gal4-RORγ-LBD (setting [1]), the half-maximal effective concentration (EC50) is 500 to 5000 nM and the “Gal4-RORγ Assay Max Response” value is “*** (The symbol “***” indicates a value in the range of greater than 150 to 200)”. Further, at RORγ-LBD, the EC50 is under 500 nM and the “TR-FRET Assay Max Response” value is given as “**** (The symbol “****” indicates a value greater than 200)”.
With `O=C(O)C1(C[C@H]2CN(S(=O)(=O)c3cccc(C4CC4)c3)c3cc(-c4cc(F)ccc4F)ccc3O2)COC1` [Compound 51E, (S)-3-((4-((3-cyclopropylphenyl)sulfonyl)-6-(2,5-difluorophenyl)-3,4-dihydro-2H-benzo[b][1,4]oxazin-2-yl)methyl)oxetane-3-carboxylic acid], at Gal4-RORγ-LBD (2 μM ursolic acid), the EC50 was over 10000 nM and the “Gal4-RORγ Assay Max Response” value is recorded as “*** (The symbol “***” indicates a value in the range of greater than 150 to 200)”. Also, on RORγ-LBD, the EC50 is under 500 nM and the “TR-FRET Assay Max Response” value is recorded as “*** (The symbol “***” indicates a value in the range of greater than 150 to 200)”.
